Experimental data as given in patent US12691088B2, “Reactivation of mTOR in acute kidney injury (AKI)” (The Trustees of Columbia University in the City of New York, priority 2021, dated 2026).
Read-outs that look alike come from different tables or passages of the source.

Key:
[1] = test system: mTORC1; settings: cited from earlier work; for mTORC1 activation (phosphorylation of S6K1 at threonine 389): mouse embryonic fibroblast (MEF) cells
[2] = test system: mTORC1; settings: human embryonic kidney 293A (HEK293A) cells; cited from earlier work
[3] = test system: ischemia reperfusion (I/R)-induced iAKI; assay: functional screening of amino acids in ischemia reperfusion (I/R)-induced iAKI; format: in vivo, wild type C57B/L6 mice; settings: 48 hours reperfusion after 25 min ischemia, 75 mg/kg i.p. 1 hour prior and every 8 hours afterwards, vs vehicle; for BUN / sCr: n=5-6
Protocol: FIGS. 4A-F show functional screening of amino acids for the regulation of ischemia reperfusion (I/R)-induced iAKI. Ischemia was incurred by clamping renal artery of the left kidney for 25 min while the right kidney was removed prior to clamping. Renal functions were analyzed by quantitating serum creatinine (sCr) and blood urea nitrogen (BUN) after the reperfusion for 48 hours. FIGS. 4[…]) or L-valine (Val; 75 mg/kg) were intraperitoneally administered into wild type C57B/L6 mice 1 hour prior to the induction of ischemic and every 8 hours afterwards.

[4] = test system: rhabdomyolysis (Rh)-induced iAKI; assay: functional screening of amino acids in rhabdomyolysis (Rh)-induced iAKI (50% glycerol i.m.); format: in vivo, wild type C57BL6 mice
Protocol: FIGS. 2A-L show a functional screening of amino acids for the regulation of rhabdomyolysis (Rh)-induced iAKI. Rh was incurred by intramuscularly injecting 50% glycerol (6 ml/kg), and renal functions were analyzed by quantitating serum creatinine (sCr) and blood urea nitrogen (BUN) after 24, 48 and 168 hours. […] or glutamine (75 mg/kg) were intraperitoneally administered into wild type C57BL6 mice at 1 hour prior to injury incurrence. It was observed that sCr and BUN were reduced at 24 hours (FIGS. 2A, B) in isoleucine-treated rhabdomyolysis mice, but were increased at 48 hours in leucine-treated mice (FIGS. 2C, D) when compared with vehicle (Veh)-treated counterparts (n=7). […] FIG. 2[…], or histidine were intraperitoneally administered into wild type C57BL6 mice at 1 hour prior to injury incurrence and then every 8 hours thereafter. It was observed that threonine reduces sCr and BUN at 24 h and histidine reduces sCr and BUN at 24 h and 48 h when compared with Veh Rh mice. Therefore, threonine and histidine protected from Rh-induced iAKI. […] FIGS. 3A-F show a functional screening of […] or L-valine for the regulation of rhabdomyolysis (Rh)-induced iAKI. Rh was incurred by intramuscularly injecting 50% glycerol (6 ml/kg), and renal functions were analyzed by quantitating serum creatinine (sCr) and blood urea nitrogen (BUN) after 24, 48 and 168 hours. FIGS. 3[…] or L-valine (75 mg/kg) were intraperitoneally administered into wild type C57BL6 mice at 1 hour prior to injury incurrence and then every 8 hours for a total of 5 doses.

[5] = test system: ischemic acute kidney injury (AKI); assay: ischemia/reperfusion (IR) ischemic AKI in nephron-specific Spns1 knockout mice, L-leucine pretreatment; format: in vivo; settings: Spns1f/f/Six2-Cre IR AKI mice; 75 mg/kg i.p. 1 hour prior; 25 min ischemia, 48 hours reperfusion; vs vehicle; n=4-7
Protocol: (§1) L-leucine (75 mg/kg) was intraperitoneally administered into wild type (WT) and nephron-specific Spns1 knockout (Spns1f/f/Six2-Cre) mice 1 hour prior to initiating ischemic AKI. The left kidney was then removed. Ischemia/reperfusion (IR) was performed by clamping the renal artery of the right kidney for 25 min of ischemia followed by 48 hours of reperfusion.

[6] = test system: ischemic acute kidney injury (AKI); assay: ischemia/reperfusion (IR) ischemic AKI in wild type mice, L-leucine pretreatment; format: in vivo; settings: WT IR AKI mice; 75 mg/kg i.p. 1 hour prior; 25 min ischemia, 48 hours reperfusion; vs vehicle; n=4-7
Protocol: as §1

[7] = 24 hours post Rh, 75 mg/kg i.p. 1 hour prior to injury then every 8 hours, total 5 doses, vs vehicle, n=7 (FIG. 3A)
[8] = 24 hours post Rh, 75 mg/kg i.p. 1 hour prior to injury then every 8 hours, total 5 doses, vs vehicle, n=7 (FIG. 3B)
[9] = 24 h post Rh, i.p. 1 hour prior to injury and every 8 hours thereafter, vs Veh Rh mice (FIG. 2G)
[10] = 24 h post Rh, i.p. 1 hour prior to injury and every 8 hours thereafter, vs Veh Rh mice (FIG. 2H)

| Structure (SMILES) | mTORC1 activation (phosphorylation of S6K1 at threonine 389) [1] | mTORC1 activation (phosphorylation of S6K1 at threonine 389) [2] | BUN [3] | sCr [3] | also measured |
| --- | --- | --- | --- | --- | --- |
| NC(=O)C[C@H](N)C(=O)O [asparagine] | activate | activate | – | – | – |
| C[C@H](N)C(=O)O [L-alanine] | activate | activate | – | – | impacts on I/R-AKI (sCr and BUN) [3]: Neither L-serine (FIGS. 4A, B), L-alanine (FIGS. 4A, B) nor L-methionine (FIGS. 4C, D) had significant impacts |
| CC(C)[C@H](N)C(=O)O [L-valine] | activate | activate | elevated | elevated | sCr [4, 7]: reduced; BUN [4, 8]: reduced; sCr ([4]; 48 hours post Rh, 75 mg/kg i.p. 1 hour prior to injury then every 8 hours, total 5 doses, vs vehicle, n=7 (FIG. 3C)): reduced; BUN ([4]; 48 hours post Rh, 75 mg/kg i.p. 1 hour prior to injury then every 8 hours, total 5 doses, vs vehicle, n=7 (FIG. 3D)): reduced |
| N[C@@H](CO)C(=O)O [L-serine] | activate | activate | – | – | impacts on I/R-AKI (sCr and BUN) [3]: Neither L-serine (FIGS. 4A, B), L-alanine (FIGS. 4A, B) nor L-methionine (FIGS. 4C, D) had significant impacts |
| N[C@@H](CC(=O)O)C(=O)O [L-aspartic acid] | – | – | reduced | reduced | – |
| N[C@@H](CS)C(=O)O [Cysteine] | activates | – | – | – | – |
| CC(C)C[C@H](N)C(=O)O [L-leucine] | activate | activate | reduced | reduced | sCr ([4]; 48 hours post Rh, 75 mg/kg i.p. 1 hour prior to injury, vs vehicle, n=7 (FIG. 2C)): increased; BUN ([4]; 48 hours post Rh, 75 mg/kg i.p. 1 hour prior to injury, vs vehicle, n=7 (FIG. 2D)): increased; Serum creatinine (sCr) [5]: markedly reduced; blood urea nitrogen (BUN) [5]: markedly reduced; Serum creatinine (sCr) [6]: markedly reduced; blood urea nitrogen (BUN) [6]: markedly reduced |
| CSCC[C@H](N)C(=O)O [L-methionine] | activate | activate | – | – | impacts on I/R-AKI (sCr and BUN) [3]: Neither L-serine (FIGS. 4A, B), L-alanine (FIGS. 4A, B) nor L-methionine (FIGS. 4C, D) had significant impacts |
| N[C@@H](Cc1c[nH]cn1)C(=O)O [L-histidine] | activate | activate | reduced | reduced | sCr [4, 9]: reduces; BUN [4, 10]: reduces; sCr ([4]; 48 h post Rh, i.p. 1 hour prior to injury and every 8 hours thereafter, vs Veh Rh mice (FIG. 2I)): reduces; BUN ([4]; 48 h post Rh, i.p. 1 hour prior to injury and every 8 hours thereafter, vs Veh Rh mice (FIG. 2J)): reduces |
| NC(=O)CC[C@H](N)C(=O)O [L-glutamine] | activate | activate | reduced | reduced | effects on Rh-induced AKI (sCr and BUN) ([4]; 24, 48 and 168 hours post Rh, 75 mg/kg i.p. 1 hour prior to injury, vs vehicle (FIGS. 2A-F)): no significant effects |
| C[C@@H](O)[C@H](N)C(=O)O [L-threonine] | activate | activate | reduced | reduced | sCr [4, 9]: reduces; BUN [4, 10]: reduces |
| C[C@H]1CCC/C=C/[C@@H]2C[C@H](O)C[C@H]2[C@H](O)/C=C/C(=O)O1 [brefeldin A, reference compound] | – | – | – | – | lysosomal localization of mTORC1 induced by glutamine and asparagine ([1]; MEFs): impairs; glutamine and asparagine-induced mTORC1 activation ([1]; wild type and Rag depleted MEFs): inhibits |
| N=C(N)NCCC[C@H](N)C(=O)O [L-arginine] | activate | activate | elevated | elevated | sCr [4, 7]: reduced; BUN [4, 8]: reduced |
| CC[C@H](C)[C@H](N)C(=O)O [L-isoleucine] | – | – | reduced | reduced | sCr ([4]; 24 hours post Rh, 75 mg/kg i.p. 1 hour prior to injury, vs vehicle, n=7 (FIG. 2A)): reduced; BUN ([4]; 24 hours post Rh, 75 mg/kg i.p. 1 hour prior to injury, vs vehicle, n=7 (FIG. 2B)): reduced |
